Data published in patent publication US20140031227A1, “HERBICIDAL COMPOSITIONS COMPRISING 4-AMINO-3-CHLORO-5-FLUORO-6-(4-CHLORO-2-FLUORO-3-METHOXYPHENYL) PYRIDINE-2-CARBOXYLIC ACID OR A DERIVATIVE THEREOF AND GLYPHOSATE OR GLUFOSINATE” (DOW AGROSCIENCES LLC, priority 2012, published 2014).
Structures can show the parent of a compound that is named as a salt.

Key:
Format in all cases: in vivo
[1] = system: IPOHE (Ipomoea hederacea Jacq., ivyleaf morningglory); experiment: Example I postemergence foliar-applied mixtures, direct seeded rice weeds, greenhouse: IPOHE; details: glyphosate DMA salt (Durango DMA) alone, 105 gae/ha
Procedure: (§1) Seeds or nutlets of the desired test plant species were planted in a soil matrix prepared by mixing a loam or sandy loam soil (e.g., 28.6 percent silt, 18.8 percent clay, and 52.6 percent sand, with a pH of about 5.8 and an organic matter content of about 1.8 percent) and calcareous grit in an 80 to 20 ratio. The soil matrix was contained in plastic pots with a volume of 1 quart and a surface area of 83.6 square centimeters (cm^2). […] The plants were grown for 8-22 days in a greenhouse with an approximate 14 hr photoperiod which was maintained at about 29° C. during the day and 26° C. during the night. Nutrients (Peters Excel® 15-5-15 5-Ca 2-Mg and iron chelate) were applied in the irrigation solution as needed and water was added on a regular basis. Supplemental lighting was provided with overhead metal halide 1000-Watt lamps as necessary. The plants were employed for testing when they reached the first through fourth true leaf stage.
(§2) Treatments consisted of the acid or esters of 4-amino-3-chloro-5-fluoro-6-(4-chloro-2-fluoro-3-methoxy-phenyl)pyridine-2-carboxylic acid (Compound A), each formulated as an SC (suspension concentrate), and various herbicidal components alone and in combination. Forms of compound A were applied on an acid equivalent basis.
(§3) For treatments comprised of formulated compounds, measured amounts of compounds were placed individually in 25 mL glass vials and diluted in a volume of 1.25% (v/v) Agri-Dex® crop oil concentrated to obtain 12× stock solutions. […] Application solutions were prepared by adding an appropriate amount of each stock solution (e.g., 1 mL) and diluted to the appropriate final concentrations with the addition of 10 mL of an aqueous mixture of 1.25% (v/v) crop oil concentrate so that the final spray solutions contained 1.25+/−0.05% (v/v) crop oil concentrate.
(§4) All stock solutions and applications solutions were visually inspected for compound compatibility prior to application. Spray solutions were applied to the plant material with an overhead Mandel track sprayer equipped with a 8002E nozzles calibrated to deliver 187 L/ha over an application area of 0.503 m^2 at a spray height of 18 to 20 inches (46 to 50 cm) above average plant canopy height. Control plants were sprayed in the same manner with the solvent blank.
(§5) The treated plants and control plants were placed in a greenhouse as described above and watered by sub-irrigation to prevent wash-off of the test compounds. After approximately 3 weeks, the condition of the test plants as compared with that of the untreated plants was determined visually and scored on a scale of 0 to 100 percent where 0 corresponds to no injury or growth inhibition and 100 corresponds to complete kill.
(§6) Colby's equation was used to determine the herbicidal effects expected from the mixtures (Colby, S. R. 1967. Calculation of the synergistic and antagonistic response of herbicide combinations. Weeds 15:20-22.).

[2] = system: DIGSA (Digitaria sanguinalis (L.) Scop., large crabgrass); experiment: Example I postemergence foliar-applied mixtures, direct seeded rice weeds, greenhouse: DIGSA; details: glyphosate DMA salt (Durango DMA) alone, 210 gae/ha
Procedure: as §1, §2, §3, §4, §5, §6

[3] = system: SORHA (Sorghum halepense (L.) Pers., johnsongrass); experiment: Example III postemergence foliar-applied mixtures, row crop weeds (corn, soybean), greenhouse: SORHA; details: glyphosate DMA salt (Durango DMA) alone
Procedure: (§7) Seeds or nutlets of the desired test plant species were planted in a soil matrix prepared by mixing a loam or sandy loam soil (e.g., 43 percent silt, 19 percent clay, and 38 percent sand, with a pH of about 8.1 and an organic matter content of about 1.5 percent) and calcareous grit in an 80 to 20 ratio. The soil matrix was contained in plastic pots with a surface area of 84.6 square centimters (cm^2) and a volume of 560 cubic centimeters (cm^3). […] The plants were grown for 7-31 days (d) in a greenhouse with an approximate 15 hour (h) photoperiod which was maintained at about 23-29° C. during the day and 22-28° C. during the night. Nutrients (Peters Excel® 15-5-15 5-Ca 2-Mg) and water were added on a regular basis and supplemental lighting was provided with overhead metal halide 1000-Watt lamps as necessary. The plants were employed for testing when they reached the first, second, or third true leaf stage.
Treatments consisted of the acid or esters of 4-amino-3-chloro-5-fluoro-6-(4-chloro-2-fluoro-3-methoxy-phenyl)pyridine-2-carboxylic acid (Compound A), each formulated as an
SC (suspension concentrate), and various herbicidal components alone and in combination. Forms of compound A were applied on an acid equivalent basis.
(§8) Other herbicidal components were applied on an acid equivalent or active ingredient basis and included the 5-enolpyruvylshikimate-3-phosphate synthase (EPSPS)-inhibiting herbicide, glyphosate dimethylamine salt, formulated as Durango DMA® and the glutamine synthase (GS)-inhibiting herbicide, glufosinate ammonium, formulated as Ignite® 280.
For treatments comprised of formulated compounds, measured amounts of compounds were placed individually in 25 mL glass vials and diluted in a volume of 1.5% (v/v) Agri-dex® crop oil concentrate to obtain 6× stock solutions. […] Application solutions were prepared by adding an appropriate amount of each stock solution (typically 2 mL) and diluted to the appropriate final concentrations with the addition of an aqueous mixture of 1.5% (v/v) crop oil concentrate and water so that the final spray solutions contained 1.25% (v/v) crop oil concentrate.
(§9) All stock solutions and applications solutions were visually inspected for compound compatibility prior to application. Compound requirements are based upon a 12 mL application volume at a rate of 187 liters per hectare (L/ha). Formulated compounds were applied to the plant material with an overhead Mandel track sprayer equipped with 8002E nozzles calibrated to deliver 187 L/ha over an application area of 0.503 square meters (m^2) at a spray height of 18 to 20 inches (46 to 50 cm) above the average plant canopy height. Control plants were sprayed in the same manner with the solvent blank.
as §5, with “2” for “3”
The following equation was used to calculate the expected activity of mixtures containing two active ingredients, A and B: […]

[4] = system: VIOTR (Viola tricolor L., wild violet); experiment: Example IV postemergence foliar-applied mixtures, general weed control, greenhouse: VIOTR; details: glyphosate DMA salt (Durango DMA) alone
Procedure: as §7, with “Sun Gro Metro-Mix® 360 planting mixture, which typically has” for “a soil matrix prepared by mixing a loam or sandy loam soil (e.g., 43 percent silt, 19 percent clay, and 38 percent sand, with”, “6.0 to 6.8” for “about 8.1”, “30 percent,” for “1.5 percent) and calcareous grit in an 80 to 20 ratio. The soil matrix was contained”, “square” for “square centimters (cm^2) and a volume of 560 cubic”, “(cm^2).” for “(cm^3).”
as §2, with “the benzyl ester” for “esters”, “SC,” for “SC (suspension concentrate),”
as §8
as §3, with “(v/v) Agri-dex” for “(v/v) Agri-Dex®”, “solution (typically” for “solution (e.g.,”, “(v/v) Agri-dex” for “(v/v)”, “contained 1.25%” for “contained 1.25+/−0.05%”
All stock solutions and applications solutions were visually inspected for compound compatibility prior to application. Compound requirements are based upon a 12 mL application volume at a rate of 187 liters per hectare (L/ha). […]
as §5, with “kill. […]” for “kill.”

[5] = system: SETFA (Setaria faberi Herrm., giant foxtail); experiment: Example IV postemergence foliar-applied mixtures, general weed control, greenhouse: SETFA; details: glyphosate DMA salt (Durango DMA) alone
Procedure: as §7, with “Sun Gro Metro-Mix® 360 planting mixture, which typically has” for “a soil matrix prepared by mixing a loam or sandy loam soil (e.g., 43 percent silt, 19 percent clay, and 38 percent sand, with”, “6.0 to 6.8” for “about 8.1”, “30 percent,” for “1.5 percent) and calcareous grit in an 80 to 20 ratio. The soil matrix was contained”, “square” for “square centimters (cm^2) and a volume of 560 cubic”, “(cm^2).” for “(cm^3).”
as §2, with “the benzyl ester” for “esters”, “SC,” for “SC (suspension concentrate),”
as §8
as §3, with “(v/v) Agri-dex” for “(v/v) Agri-Dex®”, “solution (typically” for “solution (e.g.,”, “(v/v) Agri-dex” for “(v/v)”, “contained 1.25%” for “contained 1.25+/−0.05%”
as §9, §5
(§10) Colby's equation was used to determine the herbicidal effects expected from the mixtures (Colby, S. R. 1967. Calculation of the synergistic and antagonistic response of herbicide combinations. Weeds 15:20-22.) .

[6] = system: CHEAL (Chenopodium album L., common lambsquarters); experiment: Example IV postemergence foliar-applied mixtures, general weed control, greenhouse: CHEAL; details: glyphosate DMA salt (Durango DMA) alone
Procedure: as §7, with “Sun Gro Metro-Mix® 360 planting mixture, which typically has” for “a soil matrix prepared by mixing a loam or sandy loam soil (e.g., 43 percent silt, 19 percent clay, and 38 percent sand, with”, “6.0 to 6.8” for “about 8.1”, “30 percent,” for “1.5 percent) and calcareous grit in an 80 to 20 ratio. The soil matrix was contained”, “square” for “square centimters (cm^2) and a volume of 560 cubic”, “(cm^2).” for “(cm^3).”
as §2, with “the benzyl ester” for “esters”, “SC,” for “SC (suspension concentrate),”
as §8
as §3, with “(v/v) Agri-dex” for “(v/v) Agri-Dex®”, “solution (typically” for “solution (e.g.,”, “(v/v) Agri-dex” for “(v/v)”, “contained 1.25%” for “contained 1.25+/−0.05%”
as §9, §5, §10

[7] = system: DIGSA (Digitaria sanguinalis (L.) Scop., large crabgrass); experiment: Example IV postemergence foliar-applied mixtures, general weed control, greenhouse: DIGSA; details: glyphosate DMA salt (Durango DMA) alone, 210 gae/ha
Procedure: as §7, with “Sun Gro Metro-Mix® 360 planting mixture, which typically has” for “a soil matrix prepared by mixing a loam or sandy loam soil (e.g., 43 percent silt, 19 percent clay, and 38 percent sand, with”, “6.0 to 6.8” for “about 8.1”, “30 percent,” for “1.5 percent) and calcareous grit in an 80 to 20 ratio. The soil matrix was contained”, “square” for “square centimters (cm^2) and a volume of 560 cubic”, “(cm^2).” for “(cm^3).”
as §2, with “the benzyl ester” for “esters”, “SC,” for “SC (suspension concentrate),”
as §8
as §3, with “(v/v) Agri-dex” for “(v/v) Agri-Dex®”, “solution (typically” for “solution (e.g.,”, “(v/v) Agri-dex” for “(v/v)”, “contained 1.25%” for “contained 1.25+/−0.05%”
as §9, §5, §10

SMILES: O=C(O)CNCP(=O)(O)O [Glyphosate DMA Salt, N-(phosphonomethyl)glycine, reference compound]
- Visual Weed Control (%) - 21 DAA IPOHE Obs [1]: 30%
- Visual Weed Control (%) - 21 DAA DIGSA Obs [2]: 75%
- Visual Weed Control (%) - 16 DAA SORHA Obs ([3]; 105 gae/ha): 0%
- Visual Weed Control (%) - 16 DAA SORHA Obs ([3]; 210 gae/ha): 10%
- Visual Weed Control (%) - 16 DAA SORHA Obs ([3]; 420 gae/ha): 25%
- Visual Weed Control (%) - 18 DAA VIOTR Obs ([4]; 210 gae/ha): 60%
- Visual Weed Control (%) - 18 DAA VIOTR Obs ([4]; 420 gae/ha): 85%
- VisualWeed Control (%) - 18 DAA SETFA Obs ([5]; 210 gae/ha): 10%
- VisualWeed Control (%) - 18 DAA SETFA Obs ([5]; 420 gae/ha): 90%
- Visual Weed Control (%) - 18 DAA CHEAL Obs ([6]; 420 gae/ha): 0%
- Visual Weed Control (%) - 18 DAA CHEAL Obs ([6]; 840 gae/ha): 30%
- Visual Weed Control (%) - 18 DAA DIGSA Obs [7]: 40%
